Data taken from ChEMBL document CHEMBL4819126, “Enantiomeric profiling of a chiral benzothiazole necroptosis inhibitor” (Bioorg Med Chem Lett, 2021).
Activity calls are given as the source filed them. No cut-off for these calls is given here.

Tests used:
U-937 = assay: Anti-necroptotic activity against TNFalph/Z-VAD-FMK-induced human U-937 cells assessed as cell viability measured after 19 to 21 hrs by CellTiter-Glo luminescent cell viability assay; type: functional, cell-based
L929 [1] = assay: Anti-necroptotic activity in mouse L929 cells assessed as inhibition of TZ-induced necroptosis measured after 9 hrs; type: functional, cell-based
[2] = biological target: T1, Receptor-interacting serine/threonine-protein kinase 1 (Mus musculus) (UniProt Q60855); assay: Inhibition of RIPK1 in mouse L929 cells assessed as TZ-induced MLKL phosphorylation at 1 uM measured upto 4 hrs by Western blot analysis; type: cell-based; settings: time hrs <=4
T1 sequence (whole entry): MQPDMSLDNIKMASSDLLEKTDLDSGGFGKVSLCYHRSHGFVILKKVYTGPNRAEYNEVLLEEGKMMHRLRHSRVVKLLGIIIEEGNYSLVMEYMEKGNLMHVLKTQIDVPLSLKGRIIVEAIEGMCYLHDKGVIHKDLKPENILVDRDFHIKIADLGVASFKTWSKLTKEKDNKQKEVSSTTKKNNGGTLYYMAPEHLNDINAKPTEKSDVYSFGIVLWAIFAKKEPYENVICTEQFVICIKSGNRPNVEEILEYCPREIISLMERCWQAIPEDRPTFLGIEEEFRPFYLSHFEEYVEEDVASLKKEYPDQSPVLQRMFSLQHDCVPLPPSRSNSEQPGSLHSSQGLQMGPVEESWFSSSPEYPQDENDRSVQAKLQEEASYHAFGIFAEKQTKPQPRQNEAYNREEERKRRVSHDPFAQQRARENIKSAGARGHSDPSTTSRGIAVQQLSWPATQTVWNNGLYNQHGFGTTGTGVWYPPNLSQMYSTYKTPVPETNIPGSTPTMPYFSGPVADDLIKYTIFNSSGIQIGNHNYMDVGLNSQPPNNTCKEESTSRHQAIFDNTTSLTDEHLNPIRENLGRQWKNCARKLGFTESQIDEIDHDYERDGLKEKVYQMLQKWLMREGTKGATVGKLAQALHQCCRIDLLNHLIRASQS

[3] = biological target: Receptor-interacting serine/threonine-protein kinase 3 (Homo sapiens, UniProt Q9Y572); assay: Inhibition of human wild type RIPK3 (M1 to Q307) expressed in bacterial system by kinomescan assay
[4] = biological target: T2, Receptor-interacting serine/threonine-protein kinase 1 (Homo sapiens) (UniProt Q13546); assay: Inhibition of RIPK1 in human HT-29 cells assessed as inhibition of TSZ-induced RIPK3 phosphorylation at 1 uM measured upto 4 hrs by Western blot analysis; type: cell-based; settings: time hrs <=4
T2 sequence (whole entry): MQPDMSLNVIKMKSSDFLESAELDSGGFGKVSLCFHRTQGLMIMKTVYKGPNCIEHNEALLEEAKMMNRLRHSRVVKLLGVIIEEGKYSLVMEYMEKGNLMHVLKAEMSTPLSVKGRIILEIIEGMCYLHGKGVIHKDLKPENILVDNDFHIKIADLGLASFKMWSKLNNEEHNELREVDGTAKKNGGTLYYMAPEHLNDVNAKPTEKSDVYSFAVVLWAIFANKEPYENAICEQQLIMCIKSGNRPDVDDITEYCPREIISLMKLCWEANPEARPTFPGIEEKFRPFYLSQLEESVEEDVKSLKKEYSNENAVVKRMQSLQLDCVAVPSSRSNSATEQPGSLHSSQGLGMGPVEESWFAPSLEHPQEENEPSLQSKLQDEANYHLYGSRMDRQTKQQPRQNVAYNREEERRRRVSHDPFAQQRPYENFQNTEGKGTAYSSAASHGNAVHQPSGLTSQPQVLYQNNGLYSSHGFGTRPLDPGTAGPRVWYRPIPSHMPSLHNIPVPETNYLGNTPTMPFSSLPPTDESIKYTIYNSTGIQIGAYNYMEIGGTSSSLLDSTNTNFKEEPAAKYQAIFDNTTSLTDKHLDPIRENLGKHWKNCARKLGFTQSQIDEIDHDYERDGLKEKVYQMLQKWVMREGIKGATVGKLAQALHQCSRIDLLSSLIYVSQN

L929 [5] = assay: Anti-necroptotic activity in mouse L929 cells assessed as inhibition of mTNFalpha-induced necroptosis measured after 9 hrs; type: functional
[6] = biological target: T1, Receptor-interacting serine/threonine-protein kinase 1 (Mus musculus); assay: Inhibition of RIPK1 in mouse L929 cells assessed as TZ-induced RIPK3 phosphorylation at 1 uM measured upto 4 hrs by Western blot analysis; type: cell-based; settings: time hrs <=4
HT-29 [7] = assay: Anti-necroptotic activity in human HT-29 cells assessed as inhibition of TNFalpha/Z-VAD-fmk (TCZ)-induced necroptosis pretreated for 8 to 12 hrs; type: functional, cell-based
[8] = biological target: T2, Receptor-interacting serine/threonine-protein kinase 1 (Homo sapiens); assay: Inhibition of RIPK1 in human HT-29 cells assessed as inhibition of TSZ-induced MLKL phosphorylation at 1 uM measured upto 4 hrs by Western blot analysis; type: cell-based; settings: time hrs <=4
[9] = biological target: T3, Receptor-interacting serine/threonine-protein kinase 1 (Homo sapiens, UniProt Q13546); assay: Inhibition of human wild type RIPK1 (M1 to K305) expressed in bacterial system by kinomescan assay
T3 sequence (Q13546 whole entry): T2 sequence (whole entry)

[10] = biological target: T2, Receptor-interacting serine/threonine-protein kinase 1 (Homo sapiens); assay: Inhibition of RIPK1 in human HT-29 cells assessed as inhibition of TSZ-induced RIPK1 phosphorylation at 1 uM measured upto 4 hrs by Western blot analysis; type: cell-based; settings: time hrs <=4
HT-29 [11] = assay: Anti-necroptotic activity in human HT-29 cells assessed as inhibition of TSZ induced necroptosis measured after 12 hrs; type: functional, cell-based; settings: dose 0.025-25 µM
HT-29 [12] = assay: Anti-necroptotic activity in human HT-29 cells assessed as inhibition of TNFalpha/TS induced necroptosis uM measured after 36 hrs; type: functional, cell-based
HT-29 [13] = assay: Anti-necroptotic activity in human HT-29 cells assessed as inhibition of TSZ induced necroptosis at 2.5 uM measured after 12 hrs; type: functional, cell-based
HT-29 [14] = assay: Anti-necroptotic activity in human HT-29 cells assessed as inhibition of TSZ induced necroptosis at 0.25 uM measured after 12 hrs; type: functional; design: scale not given: the % may be the effect or the level left
L929 [15] = assay: Anti-necroptotic activity against TNFalph/Z-VAD-FMK-induced mouse L929 cells assessed as cell viability measured after 19 to 21 hrs by CellTiter-Glo luminescent cell viability assay; type: functional, cell-based

Chain of Receptor-interacting serine/threonine-protein kinase 3 (Q9Y572 whole entry): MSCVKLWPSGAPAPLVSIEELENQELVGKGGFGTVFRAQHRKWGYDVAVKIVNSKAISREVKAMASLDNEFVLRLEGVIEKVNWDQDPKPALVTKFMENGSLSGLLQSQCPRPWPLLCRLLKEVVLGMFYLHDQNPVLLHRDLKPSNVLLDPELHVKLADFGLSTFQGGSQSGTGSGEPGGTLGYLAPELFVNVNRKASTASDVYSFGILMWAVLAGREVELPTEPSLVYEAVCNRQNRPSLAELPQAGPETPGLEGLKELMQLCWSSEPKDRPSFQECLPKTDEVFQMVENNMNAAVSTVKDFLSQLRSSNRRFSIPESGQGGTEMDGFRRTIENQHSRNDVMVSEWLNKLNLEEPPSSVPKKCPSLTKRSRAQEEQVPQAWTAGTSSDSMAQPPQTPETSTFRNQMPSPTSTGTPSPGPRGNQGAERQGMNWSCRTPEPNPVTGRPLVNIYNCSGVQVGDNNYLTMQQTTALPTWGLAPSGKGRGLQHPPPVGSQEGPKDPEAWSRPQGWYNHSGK

inhibition [2] | Kd [3] [nM] | inhibition [4] | inhibition [6] | inhibition [8] | Kd [9] [nM] | inhibition [10] | SMILES | IC50 (U-937) [µM] | Activity (L929 [1]) | inhibition (INH) (L929 [5]) [%] | EC50 (HT-29 [7]) [nM] | Activity (HT-29 [11]) | Activity (HT-29 [12]) | inhibition (HT-29 [13]) | Activity (HT-29 [14]) [%] | IC50 (L929 [15]) [nM]
 |  |  |  |  |  |  | CN1C(=O)[C@H](NC(=O)c2cc(Cc3ccccc3)on2)COc2ccccc21 | > 10 |  |  |  |  |  |  |  | 
100% | 270 | Active | 100% | Active | 480 | Active | CC1(C)CC1C(=O)Nc1nc2ccc(Oc3ccc(F)c(NC(=O)Cc4cccc(C(F)(F)F)c4)c3)cc2s1 (racemic) |  | Dose-Dependent Effect | 100 | 310 | Dose-Dependent Effect | Dose-Dependent Effect |  |  | 
Active | 650 | Active | Active | Active | 1700 | Active | CC1(C)C[C@H]1C(=O)Nc1nc2ccc(Oc3ccc(F)c(NC(=O)Cc4cccc(C(F)(F)F)c4)c3)cc2s1 |  | Dose-Dependent Effect | 100 | 290 |  | Dose-Dependent Effect | Active |  | 
 |  |  |  |  |  |  | CN1C(=O)[C@@H](NC(=O)c2cc(Cc3ccccc3)on2)COc2ccccc21 | 0.01 |  |  |  |  |  |  |  | 
 |  |  |  |  |  |  | CC(C)(C)C(=O)N1N=CC[C@@H]1c1ccccc1 | > 10 |  |  |  |  |  |  |  | 
Active | 145 | Active | Active | Active | 430 | Active | CC1(C)C[C@@H]1C(=O)Nc1nc2ccc(Oc3ccc(F)c(NC(=O)Cc4cccc(C(F)(F)F)c4)c3)cc2s1 |  | Dose-Dependent Effect | 100 | 150 |  | Dose-Dependent Effect | Active | 90 | 
 |  |  |  |  |  |  | CC(C)(C)C(=O)N1N=CC[C@H]1c1ccccc1 |  |  |  |  |  |  |  |  | 3.1
